The target of this test is Poly(ADP-ribose) glycohydrolase (Homo sapiens, UniProt Q86W56). Briefly: PARG Enzymatic Assay. The protocol:
Inhibition of PARG enzymatic activity by compounds was determined as follows: Recombinant His-tagged human PARG protein expressed in Sf21 insect cells (Adipogen AG, #40T-0022) was aliquoted and stored at −80° C. until use. The artificial enzyme substrate 4-(trifluoromethyl)umbelliferone (TFMU)-ADPr was prepared essentially as described (Drown B S et al, Cell Chemical Biology 2018) and stored at −20° C. as 10 mM stock solutions in DMSO (dimethyl sulfoxide) until use. For reactions, typical final concentration of the enzyme was 1 nM and of the TFMU-ADPr 200 μM. Reactions were carried out in black 384-well low volume round bottom assay plates (Corning, #4514) in a final volume of 10 μL. To this end, PARG was diluted to 1.67 nM in reaction buffer (50 mM K2HPO4, 50 mM KCl, 10 mM β-mercaptoethanol, pH 7.4) and 6 μL were dispensed per assay well using a multichannel pipette. […] Fluorescence intensity signals were then measured after 30 minutes on an EnVision microplate reader (PerkinElmer) using 380/10 nm and 535/25 nm filters for the excitation and emission, respectively (gain: 150). […]

Structures are written as SMILES.

Poly(ADP-ribose) glycohydrolase, sequence (Q86W56 whole entry): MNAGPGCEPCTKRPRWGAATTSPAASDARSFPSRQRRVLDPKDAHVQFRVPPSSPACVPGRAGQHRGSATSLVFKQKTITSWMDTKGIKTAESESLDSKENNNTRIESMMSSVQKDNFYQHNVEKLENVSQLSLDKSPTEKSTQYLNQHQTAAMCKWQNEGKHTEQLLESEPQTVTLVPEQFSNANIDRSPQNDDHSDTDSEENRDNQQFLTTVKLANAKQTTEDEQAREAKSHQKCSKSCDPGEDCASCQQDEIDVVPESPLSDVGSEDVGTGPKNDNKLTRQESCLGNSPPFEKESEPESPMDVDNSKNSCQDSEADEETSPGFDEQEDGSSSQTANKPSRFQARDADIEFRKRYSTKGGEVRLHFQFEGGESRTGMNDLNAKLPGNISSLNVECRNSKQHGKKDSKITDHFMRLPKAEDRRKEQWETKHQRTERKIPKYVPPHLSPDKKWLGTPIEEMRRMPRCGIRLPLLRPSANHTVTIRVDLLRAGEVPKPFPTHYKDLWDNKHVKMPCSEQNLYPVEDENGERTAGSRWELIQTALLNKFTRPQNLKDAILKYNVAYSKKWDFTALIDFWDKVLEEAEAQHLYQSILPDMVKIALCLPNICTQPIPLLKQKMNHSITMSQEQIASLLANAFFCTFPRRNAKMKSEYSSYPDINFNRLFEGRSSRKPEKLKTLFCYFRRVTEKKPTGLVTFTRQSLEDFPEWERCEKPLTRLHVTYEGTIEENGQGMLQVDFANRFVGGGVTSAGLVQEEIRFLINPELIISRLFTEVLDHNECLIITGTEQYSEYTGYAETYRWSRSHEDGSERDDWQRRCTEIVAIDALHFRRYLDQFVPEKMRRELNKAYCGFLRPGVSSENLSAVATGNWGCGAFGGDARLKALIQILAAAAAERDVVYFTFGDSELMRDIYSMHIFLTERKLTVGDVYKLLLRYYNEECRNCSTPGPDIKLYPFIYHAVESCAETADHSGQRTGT

Regarding `CO/N=c1\[nH]c2c(N3CCN(C(=O)C4(C(F)(F)F)CC4)[C@H](C)C3)cc(S(=O)(=O)NC3(C)CC3)cc2c(=O)n1Cc1cnn(C)c1` [US20260042754, Example 32], the IC50 (commonly the concentration that gives 50% inhibition) was under 0.03 µM.

Source of the values: BindingDB's records for patent US20260042754 (Nodus Oncology, 2026).
